# Measured values from patent publication US12673052B2, “Combinations for the treatment of cancer” (Exelixis, Inc., priority 2020, dated 2026).
# Where two headings read alike, the source gives them in different places.
# Experiments:
# [1] = biological target: AXL (Homo sapiens, UniProt P30530); assay: Kinase catalytic activity assay, radioactive assay platform; format: biochemical; settings: 10 μM ATP
# Description: (§1) Compound 1 inhibitory activity was evaluated in multiple kinase catalytic activity assays using a radioactive assay platform. […] All in vitro biochemical assays were performed at 10 μM ATP concentrations.
# [2] = biological target: MER (Homo sapiens, UniProt Q12866); assay: as above; format: biochemical; settings: 10 μM ATP
# Description: as §1
# [3] = biological target: T1, MET (Homo sapiens, UniProt P08581); assay: as above; format: biochemical; settings: 10 μM ATP
# Description: as §1
# [4] = biological target: VEGFR2 (Homo sapiens, UniProt P35968); assay: as above; format: biochemical; settings: 10 μM ATP
# Description: as §1
# [5] = biological target: T2, MET (Homo sapiens, UniProt P08581, DEL964-1010); assay: Endogenous phosphorylated MET in Hs 746T gastric carcinoma cells (MET exon 14 skip-splice mutation); format: cell-based; settings: MET (Hs 746T), no ligand; read-out: Cellular IC50
# T2 construct: endogenous in cells; host or cells: Hs 746T gastric carcinoma cells
# Description: The activity of Compound 1 was evaluated in cell-based assays that assessed the mechanistic effects of the compound in tumor and normal cells. Consistent with the biochemical data, Compound 1 is a potent inhibitor of cellular RTKs as assessed by analysis of receptor autophosphorylation as measured by enzyme-linked immunosorbent assay. Assays were performed using cell lines (PC-3, HUVEC, and A-172) stimulated with ligands to their respective receptors to induce autophosphorylation (MET, VEGFR2, and AXL) or a cell line (293A) transfected with an expression vector encoding the receptor of interest (MER). Inhibition of endogenous phosphorylated MET by Compound 1 in Hs 746T gastric carcinoma cells was also investigated due to the presence of the skip-splice mutation of exon 14 in the MET gene. This MET exon 14 alteration leads to increased MET stability and oncogenic activation, including constitutive MET phosphorylation. Also this mutation is known to occur in 3% of lung adenocarcinoma patients and to be sensitive to MET-targeted therapies (Frampton et al 2015).
# [6] = Toxicokinetics in 28-day repeat-dose toxicity study; format: in vivo, rats; settings: for half-life: oral, read-out: Half-life (t1/2)
# Description: In a 28-day repeat-dose toxicity study in rats dosed orally daily with Compound 1 at 1, 3 or 10 mg/kg, Compound 1 exposure (Cmax and AUC0-24) increased with the increase in dose level from 1-10 mg/kg/day. […] Accumulation ratio values ranged from 0.721-1.14 for Cmax and from 0.722-0.891 for AUC0-24. Consistent with the single-dose PK data, exposure in rats at steady-state on Day 28 for low doses appeared to be approximately 20-fold higher than that observed in dogs.
# [7] = biological target: BCRP (Homo sapiens, UniProt Q9UNQ0); assay: Transporter interaction study (substrate and inhibition); format: in vitro ADME
# Description: (§2) Plasma PK of Compound 1 was characterized in rats and beagle dogs. Toxicokinetic (TK) evaluations of oral Compound 1 were evaluated in repeat-dose studies in rats and dogs. Plasma protein binding was determined in mouse, rat, dog, monkey, and human plasma in vitro. Biotransformation and metabolite profiling of Compound 1 were investigated in vitro using mouse, rat, dog, monkey, and human liver microsomal fractions and hepatocytes and in vivo in rats and dogs. P-glycoprotein (P-gp) and breast cancer resistance protein (BCRP) transporter interaction studies, in vitro experiments evaluating cytochrome P450 (CYP) induction and inhibition by Compound 1, and CYP and glucuronosyltransferase (UGT) substrate specificity studies of Compound 1 were also performed.
# [8] = biological target: P-gp (Homo sapiens, UniProt P08183); assay: as above; format: in vitro ADME
# Description: as §2
# [9] = Liver microsomal stability assay; format: in vitro ADME, monkey; settings: liver microsomes
# Description: (§3) In the liver microsomal stability assay, CLint was 0.601 mL/min/g liver in mouse, 0.563 mL/min/g liver in rat, 0.315 mL/min/g liver in dog, 0.734 mL/min/g liver in monkey, and 0.639 mL/min/g liver in human. In the hepatocyte stability assay, Compound 1 CLint was 0.373 mL/min/g liver in mouse, 0.285 mL/min/g liver in rat, 1.08 mL/min/g liver in dog, 0.533 mL/min/g liver in monkey, and 0.317 mL/min/g liver in human.
# [10] = Hepatocyte stability assay; format: in vitro ADME, human; settings: hepatocytes
# Description: The mean plasma t1/2, z values were approximately 9 hours in rats and 4 hours in dogs. Interspecies scaling based on body weight to predict PK parameters in humans could not be performed because dogs (larger species) cleared Compound 1 faster than rats (smaller species). Therefore, the human PK was projected based on one species (rat). […] This apparent clearance value (CL/F) was used to predict steady-state exposure (AUC and average plasma concentration [Cavg]) in humans for the proposed first-in-human (FIH) starting dose for Study Compound 1-001.
# as §3
# [11] = system: CYP1A2; assay: CYP/UGT substrate specificity (recombinant Supersomes, chemical inhibitors in human liver microsomes); format: in vitro ADME
# Description: as §2
# [12] = system: CYP2C8; assay: as above; format: in vitro ADME
# Description: as §2
# [13] = system: CYP3A4; assay: as above; format: in vitro ADME
# Description: as §2
# [14] = biological target: T3, UGT1A1 (Homo sapiens, UniProt P22309); assay: as above; format: in vitro ADME
# T3 construct: purchased; host or cells: recombinant Supersomes; human liver microsomes
# Description: as §2
# [15] = biological target: CYP2D6 (Homo sapiens, UniProt P10635); assay: as above; format: in vitro ADME; set-up: purchased; host or cells: recombinant Supersomes; human liver microsomes
# Description: as §2
# [16] = biological target: T1, MET; assay: In vivo target modulation: MET phosphorylation by Western blot in SNU-5 xenografts; set-up: endogenous in cells; host or cells: SNU-5 human tumour xenografts in CB.17 SCID mice; species or system CB.17 SCID mice; settings: for Compound 1 Plasma Exposure: qd × 14, 4 hours after last dose on Day 14
# Description: Three human tumor cell lines, NCI-H441, MDA-MB-231, and SNU-5, were selected for use in tumor xenograft studies using athymic nude, NSG and CB.17 SCID mice, respectively. Pharmacodynamic modulation of MET phosphorylation was also measured in the NCI-H441 and SNU-5 xenografts. Tumor-bearing mice were orally dosed once-daily for 14 days (qd×14), and the tumors were resected and processed for MET phosphorylation analysis by Western blot. […]
# [17] = Day 28 vs Day 1, 1-10 mg/kg/day
# [18] = SNU-5, mouse, po, read-out: p-MET Inhibition %
# T1 sequence (P08581 25-1390): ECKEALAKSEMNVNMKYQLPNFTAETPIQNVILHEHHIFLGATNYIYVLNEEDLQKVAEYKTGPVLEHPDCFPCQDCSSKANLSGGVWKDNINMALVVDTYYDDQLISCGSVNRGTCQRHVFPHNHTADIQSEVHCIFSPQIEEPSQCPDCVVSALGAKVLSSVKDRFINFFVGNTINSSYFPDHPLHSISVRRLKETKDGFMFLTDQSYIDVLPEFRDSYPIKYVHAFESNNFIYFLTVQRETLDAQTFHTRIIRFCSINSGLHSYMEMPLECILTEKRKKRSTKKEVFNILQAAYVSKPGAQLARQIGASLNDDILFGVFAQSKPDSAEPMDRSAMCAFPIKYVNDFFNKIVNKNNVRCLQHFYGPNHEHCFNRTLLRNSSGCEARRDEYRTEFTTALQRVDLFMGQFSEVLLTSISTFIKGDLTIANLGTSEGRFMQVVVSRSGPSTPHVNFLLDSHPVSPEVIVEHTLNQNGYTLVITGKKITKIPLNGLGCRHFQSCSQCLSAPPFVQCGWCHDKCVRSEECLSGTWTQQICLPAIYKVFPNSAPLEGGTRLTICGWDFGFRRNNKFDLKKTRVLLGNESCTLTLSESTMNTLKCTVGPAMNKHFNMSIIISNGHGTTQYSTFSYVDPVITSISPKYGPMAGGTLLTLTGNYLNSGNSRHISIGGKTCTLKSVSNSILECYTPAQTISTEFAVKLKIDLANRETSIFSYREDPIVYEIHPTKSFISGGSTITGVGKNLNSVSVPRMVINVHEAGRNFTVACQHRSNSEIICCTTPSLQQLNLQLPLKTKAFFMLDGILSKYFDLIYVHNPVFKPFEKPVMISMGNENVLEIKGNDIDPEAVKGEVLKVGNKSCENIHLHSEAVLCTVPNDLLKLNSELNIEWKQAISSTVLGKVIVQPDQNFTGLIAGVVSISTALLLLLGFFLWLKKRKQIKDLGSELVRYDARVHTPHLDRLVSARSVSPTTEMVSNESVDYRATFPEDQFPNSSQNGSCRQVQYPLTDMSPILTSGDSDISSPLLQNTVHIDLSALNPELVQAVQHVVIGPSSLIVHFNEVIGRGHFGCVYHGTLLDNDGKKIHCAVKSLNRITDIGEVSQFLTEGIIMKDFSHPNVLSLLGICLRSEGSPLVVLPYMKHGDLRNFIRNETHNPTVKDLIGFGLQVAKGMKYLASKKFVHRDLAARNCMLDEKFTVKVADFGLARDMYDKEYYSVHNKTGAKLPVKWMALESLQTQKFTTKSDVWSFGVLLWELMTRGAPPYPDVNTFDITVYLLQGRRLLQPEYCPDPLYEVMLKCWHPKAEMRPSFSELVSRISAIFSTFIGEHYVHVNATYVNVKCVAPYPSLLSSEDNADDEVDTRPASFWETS
# Sequence of P-gp (P08183 whole entry): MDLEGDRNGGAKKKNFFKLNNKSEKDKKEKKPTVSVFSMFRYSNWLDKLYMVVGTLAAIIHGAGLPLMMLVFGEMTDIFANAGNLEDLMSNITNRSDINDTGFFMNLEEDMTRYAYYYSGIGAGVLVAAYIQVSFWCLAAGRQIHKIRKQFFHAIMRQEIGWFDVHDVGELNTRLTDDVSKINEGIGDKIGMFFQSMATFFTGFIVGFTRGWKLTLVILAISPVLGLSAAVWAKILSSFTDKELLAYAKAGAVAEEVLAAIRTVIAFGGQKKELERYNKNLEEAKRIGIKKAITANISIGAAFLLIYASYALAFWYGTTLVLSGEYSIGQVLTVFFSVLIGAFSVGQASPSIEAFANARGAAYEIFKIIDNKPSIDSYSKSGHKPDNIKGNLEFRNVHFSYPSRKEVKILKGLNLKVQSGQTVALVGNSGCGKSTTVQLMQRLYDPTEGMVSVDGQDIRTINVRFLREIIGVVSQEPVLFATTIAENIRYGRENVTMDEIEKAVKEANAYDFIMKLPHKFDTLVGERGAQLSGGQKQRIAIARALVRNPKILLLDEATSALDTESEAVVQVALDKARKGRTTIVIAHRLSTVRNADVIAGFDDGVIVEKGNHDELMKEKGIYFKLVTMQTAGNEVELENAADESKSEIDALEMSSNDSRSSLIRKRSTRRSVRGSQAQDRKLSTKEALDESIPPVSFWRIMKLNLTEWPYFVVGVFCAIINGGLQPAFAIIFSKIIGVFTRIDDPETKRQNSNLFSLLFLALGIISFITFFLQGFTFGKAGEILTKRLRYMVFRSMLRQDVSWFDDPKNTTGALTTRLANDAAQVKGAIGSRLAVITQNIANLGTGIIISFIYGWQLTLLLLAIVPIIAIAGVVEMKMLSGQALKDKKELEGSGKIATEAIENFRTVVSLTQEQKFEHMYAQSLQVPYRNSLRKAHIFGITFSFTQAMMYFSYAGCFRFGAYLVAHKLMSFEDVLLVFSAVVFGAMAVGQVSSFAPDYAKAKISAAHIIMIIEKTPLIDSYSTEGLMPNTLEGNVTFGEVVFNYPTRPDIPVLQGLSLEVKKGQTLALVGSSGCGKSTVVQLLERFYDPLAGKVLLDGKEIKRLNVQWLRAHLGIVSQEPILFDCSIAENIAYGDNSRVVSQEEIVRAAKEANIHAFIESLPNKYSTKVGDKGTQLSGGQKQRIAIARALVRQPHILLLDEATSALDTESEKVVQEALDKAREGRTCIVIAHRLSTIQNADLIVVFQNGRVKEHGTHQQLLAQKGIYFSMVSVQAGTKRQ
# Sequence of BCRP (Q9UNQ0 whole entry): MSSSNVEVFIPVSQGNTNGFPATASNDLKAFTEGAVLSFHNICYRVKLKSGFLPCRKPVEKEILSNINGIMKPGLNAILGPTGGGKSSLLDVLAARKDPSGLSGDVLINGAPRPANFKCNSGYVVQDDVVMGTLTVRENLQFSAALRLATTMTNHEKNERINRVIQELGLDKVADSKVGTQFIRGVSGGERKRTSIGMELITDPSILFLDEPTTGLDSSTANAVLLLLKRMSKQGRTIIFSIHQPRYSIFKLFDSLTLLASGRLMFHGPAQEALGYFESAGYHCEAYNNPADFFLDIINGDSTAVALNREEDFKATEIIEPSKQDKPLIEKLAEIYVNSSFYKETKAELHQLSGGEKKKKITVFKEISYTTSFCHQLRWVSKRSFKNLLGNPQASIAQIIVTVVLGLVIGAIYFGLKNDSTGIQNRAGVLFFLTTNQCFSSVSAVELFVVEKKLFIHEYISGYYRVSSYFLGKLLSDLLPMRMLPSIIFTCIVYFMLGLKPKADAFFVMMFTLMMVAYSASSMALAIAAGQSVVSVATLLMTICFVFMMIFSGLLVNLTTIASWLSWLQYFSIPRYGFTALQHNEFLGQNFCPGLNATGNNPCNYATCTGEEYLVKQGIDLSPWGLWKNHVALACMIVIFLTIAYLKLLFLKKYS
# Sequence of CYP2D6 (P10635 whole entry): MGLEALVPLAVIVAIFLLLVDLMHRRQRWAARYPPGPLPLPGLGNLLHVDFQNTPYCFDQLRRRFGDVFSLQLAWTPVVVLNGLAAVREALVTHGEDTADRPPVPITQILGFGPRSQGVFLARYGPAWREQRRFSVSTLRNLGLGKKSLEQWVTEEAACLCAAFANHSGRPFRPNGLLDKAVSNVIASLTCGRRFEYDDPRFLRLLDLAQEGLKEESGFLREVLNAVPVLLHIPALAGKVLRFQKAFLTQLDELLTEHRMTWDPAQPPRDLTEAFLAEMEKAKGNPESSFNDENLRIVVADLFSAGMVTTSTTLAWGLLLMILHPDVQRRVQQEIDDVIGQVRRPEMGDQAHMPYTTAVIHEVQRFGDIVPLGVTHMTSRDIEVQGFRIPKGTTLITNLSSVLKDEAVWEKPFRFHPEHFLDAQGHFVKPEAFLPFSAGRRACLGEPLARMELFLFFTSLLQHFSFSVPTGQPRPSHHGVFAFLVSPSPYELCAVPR
# T3 sequence (P22309 26-533): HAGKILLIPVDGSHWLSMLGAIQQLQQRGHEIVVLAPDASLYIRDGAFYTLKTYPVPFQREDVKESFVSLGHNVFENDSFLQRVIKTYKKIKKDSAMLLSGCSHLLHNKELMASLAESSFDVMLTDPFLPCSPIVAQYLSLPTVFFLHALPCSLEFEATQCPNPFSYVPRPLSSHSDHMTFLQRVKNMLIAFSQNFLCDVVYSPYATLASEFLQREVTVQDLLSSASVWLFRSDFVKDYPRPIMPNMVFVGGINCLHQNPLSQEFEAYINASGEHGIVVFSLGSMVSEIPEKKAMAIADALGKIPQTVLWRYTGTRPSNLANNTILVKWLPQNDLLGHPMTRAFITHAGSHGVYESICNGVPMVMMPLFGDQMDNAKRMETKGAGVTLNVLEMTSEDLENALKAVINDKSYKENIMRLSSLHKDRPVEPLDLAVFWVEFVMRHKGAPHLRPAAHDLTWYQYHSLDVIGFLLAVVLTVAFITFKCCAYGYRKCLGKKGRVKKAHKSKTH
smiles,measurement,setting,value
"CNC(=O)c1cc2c(Oc3ccc(NC(=O)C4(C(=O)Nc5ccc(F)cc5)CC4)cc3)ccnc2cc1OC [Compound 1, 1-N′-(4-Fluorophenvl)-1-N-[4-[7-methoxy-6-(methylcarbamovl)quinolin-4-yl]oxyphenyl]cyclopropane-1,1-dicarboxamide]",IC50,[1],5.8 nM
same,IC50,[2],0.6 nM
same,IC50,[3],3 nM
same,IC50,[4],15 nM
same,IC50,[5],26 nM
same,Sex differences in mean Cmax and AUC values,[6]; 28-day study,less than 2 fold
same,steady-state exposure in rats relative to dogs,"[6]; Day 28, dose-normalized AUC0-24, ss, higher in rats",approximately 20 fold
same,Accumulation ratio for AUC0-24,[6]; [17],0.722-0.891
same,Accumulation ratio for Cmax,[6]; [17],0.721-1.14
same,half-life,"[6]; both sexes, rat, plasma, Day 1",3.51 to 3.7 h
same,half-life,"[6]; both sexes, rat, plasma, Day 28",6.7 to 8.97 h
same,Tmax,"[6]; both sexes, rat, plasma, oral daily 1, 3 or 10 mg/kg, Days 1 and 28",2 to 8 h
same,substrate of transporter,[7],not to be a substrate
same,IC50,[7]; strong inhibitor,189 nM
same,substrate of transporter,[8],not to be a substrate
same,IC50,[8]; strong inhibitor,59 nM
same,CLint,[9],0.734 mL/min/g liver
same,CLint,[10],0.317 mL/min/g liver
same,substrate of enzyme,[11],not to be a substrate
same,role in the metabolism of Compound 1,[12],only a minor role
same,substrate of enzyme,[13],sensitive substrate
same,substrate of enzyme,[14],not to be a substrate
same,role in the metabolism of Compound 1,[15],only a minor role
same,Compound 1 Plasma Exposure,[16]; 3 mg/kg,1.88 µM
same,Compound 1 Plasma Exposure,[16]; 10 mg/kg,7.64 µM
same,inhibition at 3 mg/kg,[16]; [18],26%
same,inhibition at 10 mg/kg,[16]; [18],67%
